For eleven molecules, Ki results are on record in patent US20070185162A1, “Substituted diketopiperazines as oxytocin receptor antagonists” (Koninklijke Philips Electronics, N.V., priority 2004, published 2007).

The assay deals with T1, human Oxytocin-1 (hOT) receptor (Homo sapiens, UniProt P30559).
T1 construct: expressed in transfected cells
T1 sequence (P30559 1-389): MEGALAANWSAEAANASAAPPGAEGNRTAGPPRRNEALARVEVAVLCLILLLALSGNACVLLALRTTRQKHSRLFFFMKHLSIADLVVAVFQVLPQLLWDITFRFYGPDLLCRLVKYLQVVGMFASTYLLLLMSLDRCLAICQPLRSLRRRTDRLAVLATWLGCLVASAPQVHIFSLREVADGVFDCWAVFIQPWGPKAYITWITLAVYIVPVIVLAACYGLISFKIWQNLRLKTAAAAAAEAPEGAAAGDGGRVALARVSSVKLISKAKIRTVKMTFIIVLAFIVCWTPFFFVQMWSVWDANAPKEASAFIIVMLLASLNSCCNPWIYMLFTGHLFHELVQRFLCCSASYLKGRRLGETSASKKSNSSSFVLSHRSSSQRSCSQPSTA
In words: Determination of antagonist affinity at human Oxytocin-1 receptors using FLIPR (Assay 1). Type of assay: cell-based. To be noted: CHO-hOT cells, [Ca2+]i response to oxytocin (EC80); mean, n>=3; read-out: hOT FLIPR fpKi mean. Here is the method:
Determination of Antagonist Affinity at Human Oxytocin-1 Receptors Using FLIPR
Adherent Chinese Hamster Ovary (CHO) cells, stably expressing the recombinant human Oxytocin-1 (hOT) receptor, were maintained in culture in DMEM:F12 medium (Sigma, cat no D6421), supplemented with 10% heat inactivated foetal calf serum (Gibco/Invitrogen, cat. no. 01000-147), 2 mM L-glutamine (Gibco/Invitrogen, cat. no. 25030-024) and 0.2 mg/ml G418 (Gibco/Invitrogen, cat no. 10131-027). Cells were grown as monolayers under 95%:5% air:CO2 at 37° C. and passaged every 3-4 days using TrypLE™ Express (Gibco/Invitrogen, cat no. 12604-013).
Measurement of [Ca^2+]i Using the FLIPR™
CHO-hOT cells were seeded into black walled clear-base 384-well plates (Nunc) at a density of 10,000 cells per well in culture medium as described above and maintained overnight (95%:5% air:CO2 at 37° C.). After removal of culture medium, cells were incubated for 1 h at 37° C. in Tyrode's medium (NaCl, 145 mM; KCl, 2.5 mM; HEPES, 10 mM; Glucose, 10 mM; MgCl2, 1.2 mM; CaCl2, 1.5 mM) containing probenacid (0.7 mg/ml), the cytoplasmic calcium indicator, Fluo-4 (4 uM; Teflabs, USA) and the quenching agent Brilliant Black (250 uM; Molecular Devices, UK). Cells were then incubated for an additional 30 min at 37° C. with either buffer alone or buffer containing OT antagonist, before being placed into a FLIPR™ (Molecular Devices, UK) to monitor cell fluorescence (λex=488 nm, λEM=540 nm) before and after the addition of a submaximal concentration of oxytocin (EC80).
Functional responses using FLIPR were analysed using Activity Base Version 5.0.10. Data are reported as mean values, wherein number of times tested (n) is greater than or equal to 3.
Consider `Cc1ccc([C@H](C(=O)N(C)C)N2C(=O)[C@@H](C3Cc4ccccc4C3)NC(=O)[C@H]2CC(C)C)cn1` [Comparator X, (2R)-2-[(3R,6R)-3-(2,3-dihydro-1H-inden-2-yl)-6-isobutyl-2,5-dioxopiperazin-1-yl]-N,N-dimethyl-2-(6-methylpyridin-3-yl)ethanamide, reference compound], for which the Ki lay in the range of 7.94 to 25.1 nM.
For `Cc1nc([C@H](C(=O)N2CCOCC2)N2C(=O)[C@@H](C3Cc4ccccc4C3)NC(=O)[C@H]2CC(C)C)co1` [Comparator Y, (3R,6R)-3-(2,3-dihydro-1H-inden-2-yl)-1-[(1R)-1-(2-methyl-1,3-oxazol-4-yl)-2-(4-morpholinyl)-2-oxoethyl]-6-(2-methylpropyl)-2,5-piperazinedione, reference compound], the Ki was in the range of 31.6 to 100 nM.
Consider `CCC(CC)[C@@H]1C(=O)N[C@H](C2Cc3ccccc3C2)C(=O)N1[C@@H](C(=O)NC)c1ccc(C)nc1` [Example 1, (2R)-2-[(3R,6R)-3-(2,3-Dihydro-1H-inden-2-yl)-6-(1-ethylpropyl)-2,5-dioxo-1-piperazinyl]-N-methyl-2-(6-methyl-3-pyridinyl)ethanamide], for which the Ki lay within 2 to 6.31 nM.
With `CCC(CC)[C@@H]1C(=O)N[C@H](C2Cc3ccccc3C2)C(=O)N1[C@@H](C(=O)N(C)C)c1ccc(C)nc1` [Example 2, (2R)-2-[(3R,6R)-3-(2,3-Dihydro-1H-inden-2-yl)-6-(1-ethylpropyl)-2,5-dioxo-1-piperazinyl]-N,N-dimethyl-2-(6-methyl-3-pyridinyl)ethanamide], the Ki lay within 0.501 to 1.58 nM.
As for `CCC(CC)[C@@H]1C(=O)N[C@H](C2Cc3ccccc3C2)C(=O)N1[C@@H](C(=O)NC)c1ccc(C)nc1C` [Example 3, (2R)-2-[(3R,6R)-3-(2,3-Dihydro-1H-inden-2-yl)-6-(1-ethylpropyl)-2,5-dioxo-1-piperazinyl]-2-(2,6-dimethyl-3-pyridinyl)-N-methylethanamide], the Ki was in the range of 0.501 to 1.58 nM.
On to `CCC(CC)[C@@H]1C(=O)N[C@H](C2Cc3ccccc3C2)C(=O)N1[C@@H](C(=O)N(C)C)c1ccc(C)nc1C` [Example 4, (2R)-2-[(3R,6R)-3-(2,3-Dihydro-1H-inden-2-yl)-6-(1-ethylpropyl)-2,5-dioxo-1-piperazinyl]-2-(2,6-dimethyl-3-pyridinyl)-N,N-dimethylethanamide], for which the Ki was 0.501 to 1.58 nM.
For the molecule `CCC(CC)[C@@H]1C(=O)N[C@H](C2Cc3ccccc3C2)C(=O)N1[C@@H](C(=O)N1CCOCC1)c1ccc(C)nc1C` [Example 5, (3R,6R)-3-(2,3-Dihydro-1H-inden-2-yl)-1-[(1R)-1-(2,6-dimethyl-3-pyridinyl)-2-(4-morpholinyl)-2-oxoethyl]-6-(1-ethylpropyl)-2,5-piperazinedione], the Ki was at most 0.398 nM.
Under `CCC(CC)[C@@H]1C(=O)N[C@H](C2Cc3ccccc3C2)C(=O)N1[C@@H](C(=O)NC)c1ccc2c(cnn2C)c1` [Example 6, (2R)-2-[(3R,6R)-3-(2,3-Dihydro-1H-inden-2-yl)-6-(1-ethylpropyl)-2,5-dioxo-1-piperazinyl]-N-methyl-2-(1-methyl-1H-indazol-5-yl)acetamide] stands at most 0.398 nM; under `CCC(CC)[C@@H]1C(=O)N[C@H](C2Cc3ccccc3C2)C(=O)N1[C@@H](C(=O)N(C)C)c1ccc2c(cnn2C)c1` [Example 7, (2R)-2-[(3R,6R)-3-(2,3-Dihydro-1H-inden-2-yl)-6-(1-ethylpropyl)-2,5-dioxo-1-piperazinyl]-N,N-dimethyl-2-(1-methyl-1H-indazol-5-yl)ethanamide], at most 0.398 nM; under `CCC(CC)[C@@H]1C(=O)N[C@H](C2Cc3ccccc3C2)C(=O)N1[C@@H](C(=O)N1CCOCC1)c1ccc2c(cnn2C)c1` [Example 8, (3R,6R)-3-(2,3-Dihydro-1H-inden-2-yl)-6-(1-ethylpropyl)-1-[(1R)-1-(1-methyl-1H-indazol-5-yl)-2-(4-morpholinyl)-2-oxoethyl]-2,5-piperazinedione], at most 0.398 nM.
For the molecule `CCC(CC)[C@@H]1C(=O)N[C@H](C2Cc3ccccc3C2)C(=O)N1[C@@H](C(=O)N1CCOCC1)c1coc(C)n1` [Example 9, (3R,6R)-3-(2,3-Dihydro-1H-inden-2-yl)-6-(1-ethylpropyl)-1-[(1R)-1-(2-methyl-1,3-oxazol-4-yl)-2-(4-morpholinyl)-2-oxoethyl]-2,5-piperazinedione], the Ki was 0.501 to 1.58 nM.
